Where two headings read alike, the source gives them in different places.
Columns and labels:
[1] = system: nuclear factor kappa B (NF-κB) pathway; assay: Cell-based assay of the nuclear factor kappa B (NF-κB) pathway; settings: for Rating (inhibition of NF-κB): one rating per compound
Experimental: The effect of adding anti-aging and/or anti-wrinkling compounds to the skin care formulation of EXAMPLE 18 on nuclear factor kappa B (NF-κB) mediated-inflammation was evaluated.
A cell-based assay was performed to determine the effective of each of these compounds. The assay involved the effect of each compound on the nuclear factor kappa B (NF-κB) pathway. The inhibition of NF-κB is indicative of a protective effect against aging and wrinkling.

[2] = system: elastin; assay: Induction of elastin; type: cell-based; settings: for Rating (Elastin): first rating in cell
Experimental: (§1) Higher elastin and collagen activity is indicative of anti-wrinkling or anti-aging effects. Activation of the antioxidant response element (ARE) pathway was also evaluated. The NF-E2-related factor (Nrf2) is a critical transcription factor in oxidative stress signaling. Nrf2 binds to the ARE and serves as a master regulator in cellular defense pathways. The ARE pathway mediates the transcriptional induction of a battery of genes that help to protect the cells against oxidative damage. Activation of the ARE promoter leads to more endogenous antioxidants and cell detoxification.

[3] = system: collagen 1A; assay: Induction of collagen 1A; type: cell-based; settings: for Rating (Collagen 1A): second rating in cell
Experimental: as §1

[4] = system: antioxidant response element (ARE) pathway; assay: Activation of the antioxidant response element (ARE) pathway; type: cell-based; settings: for Rating (ARE): third rating in cell
Experimental: as §1

[5] = system: UV-induced ROS; assay: Inhibition of the production of UV-induced reactive oxygen species (ROS); type: cell-based; settings: for inhibition at 10 µg/mL: read-out: % inhibition of UV-induced ROS
Experimental: The effect of the compounds of EXAMPLE 20 on inhibition of the production of reactive oxygen species (ROS), which can damage skin cells, was evaluated.

[6] = read-out: % inhibition of NF-κB
[7] = final dose 50 μg/ml, read-out: % inhibition of NF-κB
[8] = final dose 100 μg/ml, read-out: % inhibition of NF-κB

SMILES	% inhibition of NF-κB ([1]; final dose 10 μg/ml)	% inhibition of NF-κB ([1]; final dose 50 μg/ml)	Rating (inhibition of NF-κB) [1]	inhibition at 100 µg/mL [1, 6]	Rating (Elastin) [2]	Rating (Collagen 1A) [3]	Rating (ARE) [4]	inhibition at 10 µg/mL [5]	inhibition at 50 µg/mL [1, 7]	inhibition at 100 µg/mL [1, 8]	fold induction at 10 µg/mL ([2]; final dose 10 μg/ml)	fold induction at 50 µg/mL ([2]; final dose 50 μg/ml)	fold induction at 100 µg/mL ([2]; final dose 100 μg/ml)	fold induction at 10 µg/mL ([3]; final dose 10 μg/ml)	fold induction at 50 µg/mL ([3]; final dose 50 μg/ml)	fold induction at 100 µg/mL ([3]; final dose 100 μg/ml)	fold induction at 10 µg/mL ([4]; final dose 10 μg/ml)	fold induction at 50 µg/mL ([4]; final dose 50 μg/ml)	fold induction at 100 µg/mL ([4]; final dose 100 μg/ml)	inhibition at 10 µg/mL ([5]; final dose 10 μg/ml)	further results
O=c1c(O)c(-c2ccc(O)c(O)c2)oc2cc(O)c(O)c(O)c12 [HI-9, quercetagetin]	none	none	none and ** (medium activity (31-55%))	20%	none	*** (high activity (56-75%))	none	> 70%	–	–	–	–	–	–	–	–	–	–	–	–	–
O=C1C[C@@H](c2ccc(O)cc2)Oc2cc(O)cc(O)c21 [HI-5, naringenin]	none	–	none	–	–	* (low activity (20-30%))	**** (very high activity (>76%))	–	56%	62%	1.5	< 1.3	1.5	< 1.3	< 1.3	1.3	2	2	2	~25%	–
Oc1cc(O)c2cc(O)c(-c3cc(O)c(O)c(O)c3)[o+]c2c1 [HI-2, delphiniden]	none	none	none	–	none	none	none	–	–	–	–	–	–	–	–	–	–	–	–	–	% inhibition of NF-κB ([1]; final dose 100 μg/ml): none; Elastin induction ([2]; final dose 10 μg/ml): 1.5x; Elastin induction ([2]; final dose 50 μg/ml): — (The dash (—) indicates <1.3x or no induction); Elastin induction ([2]; final dose 100 μg/ml): — (The dash (—) indicates <1.3x or no induction); Collagen 1A induction ([3]; final dose 10 μg/ml): — (The dash (—) indicates <1.3x or no induction); Collagen 1A induction ([3]; final dose 50 μg/ml): — (The dash (—) indicates <1.3x or no induction); Collagen 1A induction ([3]; final dose 100 μg/ml): — (The dash (—) indicates <1.3x or no induction); ARE activation ([4]; final dose 10 μg/ml): — (The dash (—) indicates <1.3x or no induction); ARE activation ([4]; final dose 50 μg/ml): — (The dash (—) indicates <1.3x or no induction); ARE activation ([4]; final dose 100 μg/ml): 1.7x; % inhibition of UV-induced ROS ([5]; final dose 10 μg/ml): >70%
O=C(/C=C/c1ccc(O)c(O)c1)OCCc1ccccc1 [HI-6, caffeic acid phenylethyl ester]	–	–	*** (high activity (56-75%))	> 90%	none, none, N/A	none, none, N/A	–	> 70%	–	–	< 1.3	< 1.3	2	< 1.3	< 1.3	< 1.3	< 1.3	< 1.3	< 1.3	–	inhibition at 10 µg/mL [1, 6]: 64%; inhibition at 50 µg/mL [1, 6]: > 90%
O=c1c(O)c(-c2cc(O)c(O)c(O)c2)oc2cc(O)cc(O)c12 [HI-8, myricetin]	none	–	none	–	–	none	none	–	39%	44%	< 1.3	3	2.8	< 1.3	< 1.3	< 1.3	< 1.3	< 1.3	< 1.3	> 70%	–
